Literature values, collected in article PMC5751249, “Anti-Diabetic Effect of Organo-Chalcogen (Sulfur and Selenium) Zinc Complexes with Hydroxy-Pyrone Derivatives on Leptin-Deficient Type 2 Diabetes Model ob/ob Mice” (International Journal of Molecular Sciences, 2017).

Test system: male ICR mice
Set-up: method as in doi:10.1248/jhs1956.39.4_289
Conditions: six days per week, 30 days, cited from earlier work

## N[C@@H](C[SeH])C(=O)O (racemic) [D,L-selenocysteine]
Oral once daily 30 mg/kg/day (13.9 mg Se/kg/day)
  Lethality: 100%
Oral once daily 30 mg/kg/day
  Hepatic histology finding: vacuolation of centrilobular and peripheral hepatocytes
